Results as given in PMC8296985, “A Covalent Calmodulin Inhibitor as a Tool to Study Cellular Mechanisms of K-Ras-Driven Stemness” (Frontiers in Cell and Developmental Biology, 2021).
pIC50, pKd, pKi: −log10 of the molar value.

test system: Hs 578T; assay: 3D spheroid (tumorosphere) formation assay, low attachment, serum-free, alamarBlue; type: cell-based; conditions: Homo sapiens, 72 h; Hs 578T (H-RasG12D) 3D tumorosphere, 3 days treatment; read-out: IC50
Experimental: (§1) 3D spheroid formation assays were performed in 96-well low-attachment, suspension culture plates (cat. no. 655185, Cellstar, Greiner Bio-One) under serum-free condition. About 1,000 (MDA-MB-231, NCI-H358, and MIA PaCa-2) or 2,500 (Hs 578T) cells per well were seeded in 50 μl of either an RPMI medium (cat. no. 52400-025, Gibco, Thermo Fisher Scientific) (MDA-MB-231, A375, and NCI-H358) or DMEM (cat. no. 41965-039, Gibco, Thermo Fisher Scientific) (Hs 578T and MIA PaCa-2), containing 0.5% MethoCult (cat. no. SF H4636, Stemcell technologies), 1x B27 (cat. no. 17504044, Gibco, Thermo Fisher Scientific), 25 ng/ml EGF (cat. no. E9644, Sigma-Aldrich), and 25 ng/ml FGF (cat. no. RP-8628, Thermo Fisher Scientific). Cells were cultured for 3 days and then treated with compounds or vehicle control (DMSO 0.1% v/v in growth medium) for another 3 days. The cells were supplemented with a fresh growth medium on the third day together with the drug treatment. For knockdown experiments, cells were seeded in 12-well plates and treated with either 50 nM scrambled siRNA (cat. no. 1022076, QIAGEN) or indicated concentrations of siRNAs. Next day, cells were collected by trypsinization and re-plated into 96-well plates for 3D spheroid suspension culture.
(§2) Spheroid formation efficiency was analyzed by an alamarBlue assay reagent (cat. no. DAL1100, Thermo Fisher Scientific). A 10% final volume of the alamarBlue reagent was added to each well of the plate and incubated for 4 h at 37°C. Then the fluorescence intensity was measured using the FLUOstar OPTIMA plate reader (BMG Labtech, Germany) with an excitation wavelength of 560 ± 5 nm and an emission wavelength of 590 ± 5 nm.
(§3) To quantitatively profile the drug sensitivity with a more robust parameter than the IC50 or EC50 values, the drug sensitivity score (DSS) analysis was employed. DSS values are essentially normalized area under the curve (AUC) measures of dose-response inhibition data ([Yadav et al., 2014]). Drug response data files (in Excel) ready for online analysis were prepared according to the example file obtained from the DSS pipeline website, called Breeze^1 ([Potdar et al., 2020]). Either raw fluorescence intensity measurements or normalized % inhibition data (for BRET assay analysis) were uploaded.
(§4) DSS3 was employed to emphasize drugs that obtain their response area over a relatively wide dose window, as compared to drugs that show increased response only at the higher end of the concentration range. After logistic fitting of the dose-response inhibition data, the area under the curve (AUC) was determined as the exact solution. A 10% minimal activity threshold (t) was set. The maximum (Cmax) and minimum (Cmin) concentrations were used for screening of the inhibitors, with Cmax = x2 and x1 concentration with minimal activity t.

| Structure (SMILES) | pIC50 |
| --- | --- |
| CC(C)c1ccc2cc(C(F)(F)F)c(=O)c3c(N4CCOCC4)c(C=O)c(c1)c23 [Compound 2] | 4.60 |
| CC(C)c1ccc2cc(C(F)(F)F)c(=O)c3c(N4CCCC4)c(C=O)c(c1)c23 [Compound 4] | < 4.40 |
| CC(C)c1ccc2cc(C(F)(F)F)c(=O)c3c(N4CCC4)c(C=O)c(c1)c23 [Compound 5] | 4.88 |
| CC(C)c1ccc2cc(C(F)(F)F)c(=O)c3c(NCCO)c(C=O)c(c1)c23 [Compound 6] | < 4.40 |
| CC(C)c1ccc2cc(C(F)(F)F)c(=O)c3c(N)c(C=O)c(c1)c23 [Compound 7] | < 4.40 |
| Cc1c(N2CCOCC2)c2c(=O)c(C(F)(F)F)cc3ccc(C(C)C)cc1c32 [Compound 9] | 4.76 |
| Cc1c(N2CCN(C)CC2)c2c(=O)c(C(F)(F)F)cc3ccc(C(C)C)cc1c32 [Compound 10] | 4.64 |

same assay, conditions: Homo sapiens; Hs 578T 3D tumorosphere; log scale; read-out: logIC50 ± SD (converted)

| Structure (SMILES) | IC50 |
| --- | --- |
| CC(C)c1ccc2cc(C(F)(F)F)c(=O)c3c(N4CCOCC4)c(C=O)c(c1)c23 [Compound 2] | 24.5 µM |
| CC(C)c1ccc2cc(C(F)(F)F)c(=O)c3c(N4CCC4)c(C=O)c(c1)c23 [Compound 5] | 13.2 µM |
| Cc1c(N2CCOCC2)c2c(=O)c(C(F)(F)F)cc3ccc(C(C)C)cc1c32 [Compound 9] | 17.4 µM |
| Cc1c(N2CCN(C)CC2)c2c(=O)c(C(F)(F)F)cc3ccc(C(C)C)cc1c32 [Compound 10] | 22.9 µM |

same assay, conditions: Hs 578T 3D tumorosphere; log scale

| Structure (SMILES) | logIC50 ± SD |
| --- | --- |
| CC(C)c1ccc2cc(C(F)(F)F)c(=O)c3c(N4CCCC4)c(C=O)c(c1)c23 [Compound 4] | Inconclusive |
| CC(C)c1ccc2cc(C(F)(F)F)c(=O)c3c(NCCO)c(C=O)c(c1)c23 [Compound 6] | Inconclusive |
| CC(C)c1ccc2cc(C(F)(F)F)c(=O)c3c(N)c(C=O)c(c1)c23 [Compound 7] | Inconclusive |

test system: MDA-MB-231; assay: as above; type: cell-based; conditions: Homo sapiens, 72 h; MDA-MB-231 (K-RasG13D) 3D tumorosphere, 3 days treatment; read-out: IC50
Experimental: as §1, §2, §3, §4

| Structure (SMILES) | pIC50 |
| --- | --- |
| CC(C)c1ccc2cc(C(F)(F)F)c(=O)c3c(N4CCOCC4)c(C=O)c(c1)c23 [Compound 2] | 4.64 |
| CC(C)c1ccc2cc(C(F)(F)F)c(=O)c3c(N4CCCC4)c(C=O)c(c1)c23 [Compound 4] | < 4.40 |
| CC(C)c1ccc2cc(C(F)(F)F)c(=O)c3c(N4CCC4)c(C=O)c(c1)c23 [Compound 5] | 4.46 |
| CC(C)c1ccc2cc(C(F)(F)F)c(=O)c3c(NCCO)c(C=O)c(c1)c23 [Compound 6] | < 4.40 |
| CC(C)c1ccc2cc(C(F)(F)F)c(=O)c3c(N)c(C=O)c(c1)c23 [Compound 7] | < 4.40 |
| Cc1c(N2CCOCC2)c2c(=O)c(C(F)(F)F)cc3ccc(C(C)C)cc1c32 [Compound 9] | 4.71 |
| Cc1c(N2CCN(C)CC2)c2c(=O)c(C(F)(F)F)cc3ccc(C(C)C)cc1c32 [Compound 10] | < 4.40 |

same assay, conditions: Homo sapiens; MDA-MB-231 3D tumorosphere; log scale; read-out: logIC50 ± SD (converted)

| Structure (SMILES) | IC50 |
| --- | --- |
| CC(C)c1ccc2cc(C(F)(F)F)c(=O)c3c(N4CCOCC4)c(C=O)c(c1)c23 [Compound 2] | 22.9 µM |
| CC(C)c1ccc2cc(C(F)(F)F)c(=O)c3c(N4CCC4)c(C=O)c(c1)c23 [Compound 5] | 34.7 µM |
| Cc1c(N2CCOCC2)c2c(=O)c(C(F)(F)F)cc3ccc(C(C)C)cc1c32 [Compound 9] | 19.5 µM |

same assay, conditions: MDA-MB-231 3D tumorosphere; log scale

| Structure (SMILES) | logIC50 ± SD |
| --- | --- |
| CC(C)c1ccc2cc(C(F)(F)F)c(=O)c3c(N4CCCC4)c(C=O)c(c1)c23 [Compound 4] | Inconclusive |
| CC(C)c1ccc2cc(C(F)(F)F)c(=O)c3c(NCCO)c(C=O)c(c1)c23 [Compound 6] | Inconclusive |
| CC(C)c1ccc2cc(C(F)(F)F)c(=O)c3c(N)c(C=O)c(c1)c23 [Compound 7] | Inconclusive |
| Cc1c(N2CCN(C)CC2)c2c(=O)c(C(F)(F)F)cc3ccc(C(C)C)cc1c32 [Compound 10] | Inconclusive |

same assay, conditions: MDA-MB-231 vs Hs 578T 3D spheroid formation, 0.6–40 μM; numbers above bars Fig. 1A,B

| Structure (SMILES) | KRAS/HRAS mutant cell line DSS3 ratio |
| --- | --- |
| CC(C)c1ccc2cc(C(F)(F)F)c(=O)c3c(N4CCOCC4)c(C=O)c(c1)c23 [Compound 2] | 3.3 |
| CC(C)c1ccc2cc(C(F)(F)F)c(=O)c3c(N4CCCC4)c(C=O)c(c1)c23 [Compound 4] | 2.0 |
| CC(C)c1ccc2cc(C(F)(F)F)c(=O)c3c(N4CCC4)c(C=O)c(c1)c23 [Compound 5] | 0.7 |
| CC(C)c1ccc2cc(C(F)(F)F)c(=O)c3c(NCCO)c(C=O)c(c1)c23 [Compound 6] | 115.5 |
| CC(C)c1ccc2cc(C(F)(F)F)c(=O)c3c(N)c(C=O)c(c1)c23 [Compound 7] | 2.2 |
| Cc1c(N2CCOCC2)c2c(=O)c(C(F)(F)F)cc3ccc(C(C)C)cc1c32 [Compound 9] | 1.3 |
| Cc1c(N2CCN(C)CC2)c2c(=O)c(C(F)(F)F)cc3ccc(C(C)C)cc1c32 [Compound 10] | 0.03 |

target: calmodulin (CaM) (Bos taurus, UniProt P62157); assay: Fluorescence polarization assay, displacement of F-PMCA peptide from CaM; conditions: not given

| Structure (SMILES) | pKd | pKi |
| --- | --- | --- |
| CC(C)c1ccc2cc(C(F)(F)F)c(=O)c3c(N4CCOCC4)c(C=O)c(c1)c23 [Compound 2] | 6.64 | 4.89 |
| CC(C)c1ccc2cc(C(F)(F)F)c(=O)c3c(N4CCCC4)c(C=O)c(c1)c23 [Compound 4] | 4.41 |  |
| CC(C)c1ccc2cc(C(F)(F)F)c(=O)c3c(N4CCC4)c(C=O)c(c1)c23 [Compound 5] | 4.54 |  |
| CC(C)c1ccc2cc(C(F)(F)F)c(=O)c3c(NCCO)c(C=O)c(c1)c23 [Compound 6] | 4.51 |  |
| CC(C)c1ccc2cc(C(F)(F)F)c(=O)c3c(N)c(C=O)c(c1)c23 [Compound 7] | 4.35 |  |
| Cc1c(N2CCOCC2)c2c(=O)c(C(F)(F)F)cc3ccc(C(C)C)cc1c32 [Compound 9] | 5.84 | 3.64 |

same assay, conditions: CaM-binding affinity after 24-h incubation, F-PMCA probe

| Structure (SMILES) | Kd ± SD |
| --- | --- |
| Cc1c(N2CCN(C)CC2)c2c(=O)c(C(F)(F)F)cc3ccc(C(C)C)cc1c32 [Compound 10] | Inconclusive |

same assay, conditions: after 24-h incubation; higher affinity than OphA

| Structure (SMILES) | affinity for CaM relative to OphA |
| --- | --- |
| CC(C)c1ccc2cc(C(F)(F)F)c(=O)c3c(N4CCOCC4)c(C=O)c(c1)c23 [Compound 2] | 15 fold |

same assay, conditions: read-out: k2/Ki second-order rate constant

| Structure (SMILES) | kinact/KI |
| --- | --- |
| CC(C)c1ccc2cc(C(F)(F)F)c(=O)c3c(N4CCOCC4)c(C=O)c(c1)c23 [Compound 2] | 25.8 M⁻¹ s⁻¹ |
| Cc1c(N2CCOCC2)c2c(=O)c(C(F)(F)F)cc3ccc(C(C)C)cc1c32 [Compound 9] | 1.67 M⁻¹ s⁻¹ |
